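A five-concentration, 48-hour dose response in 96-well plates underlies each endpoint, interpolated linearly between surrounding concentrations. GI50 is the concentration that inhibits growth by half.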 The source made the active and inactive calls. Rule as the data show it: active = GI50 up to about 1.1 µM and inactive = higher.
Assays:
Assay in all cases: growth of human tumour cells (NCI), 48 h
[1] = system: A549
[2] = system: ACHN
[3] = system: COLO 205
[4] = system: HL-60
[5] = system: HOP-92
[6] = system: HT-29
[7] = system: K562
[8] = system: MCF7
[9] = system: MDA-N
[10] = system: NCI-H226
[11] = system: NCI-H23
[12] = system: NCI/ADR-RES
[13] = system: OVCAR-4
[14] = system: OVCAR-5
[15] = system: SK-MEL-28
[16] = system: SK-MEL-5
[17] = system: SN12C
[18] = system: SNB-19
[19] = system: UACC-257
[20] = system: UACC-62

Row | SMILES | GI50 [1] | GI50 [2] | GI50 [3] | GI50 [4] | GI50 [5] | GI50 [6] | GI50 [7] | GI50 [8] | GI50 [9] | GI50 [10] | GI50 [11] | GI50 [12] | GI50 [13] | GI50 [14] | GI50 [15] | GI50 [16] | GI50 [17] | GI50 [18] | GI50 [19] | GI50 [20]
1 | CC(=O)O[C@H]1C(=O)[C@@]2(C)[C@H]([C@H](OC(=O)c3cccc([N+](=O)[O-])c3)[C@]3(O)C[C@H](OC(=O)[C@H](O)[C@@H](NC(=O)c4ccccc4)c4ccccc4)C(C)=C1C3(C)C)[C@]1(OC(C)=O)CO[C@@H]1C[C@@H]2O | 0.014 µM (active) | 0.151 µM (active) | 0.00474 µM (active) | < 0.0025 µM (active) | 0.022 µM (active) | 0.0043 µM (active) | 0.00482 µM (active) | 0.00423 µM (active) | 0.00285 µM (active) | 0.00257 µM (active) | 0.00912 µM (active) | 5.52 µM (inactive) | 3.58 µM (inactive) | 0.0105 µM (active) | 0.0157 µM (active) | 0.00582 µM (active) | 0.00695 µM (active) | 0.00652 µM (active) | < 0.0025 µM (active) | 0.0153 µM (active)
2 | O=C1c2ccccc2C(=O)N1[C@@H](Cc1ccccc1)C(=O)n1cccc1CO | > 100 µM (inactive) | > 100 µM (inactive) | > 100 µM (inactive) | > 100 µM (inactive) | > 100 µM (inactive) | > 100 µM (inactive) | > 100 µM (inactive) | > 100 µM (inactive) | > 100 µM (inactive) | > 100 µM (inactive) | > 100 µM (inactive) | > 100 µM (inactive) | > 100 µM (inactive) | > 100 µM (inactive) | > 100 µM (inactive) | > 100 µM (inactive) | > 100 µM (inactive) | > 100 µM (inactive) | > 100 µM (inactive) | > 100 µM (inactive)
3 | O=C(CSc1nc2ccccc2c2ccccc12)c1ccccc1 | > 100 µM (inactive) | > 100 µM (inactive) | > 100 µM (inactive) | > 100 µM (inactive) | > 100 µM (inactive) | > 100 µM (inactive) | > 100 µM (inactive) | > 100 µM (inactive) | > 100 µM (inactive) | > 100 µM (inactive) | > 100 µM (inactive) | > 100 µM (inactive) | > 100 µM (inactive) | > 100 µM (inactive) | > 100 µM (inactive) | > 100 µM (inactive) | > 100 µM (inactive) | > 100 µM (inactive) | > 100 µM (inactive) | > 100 µM (inactive)
